Results taken from patent US11077167B2, “Agent for promoting skeletal muscle injury repair” (Osaka University, priority 2017, dated 2021).

How the values were obtained:
mesenchymal cell = conditions: Patent Literature 2; cited from earlier work
[1] = test system: muscle injury model rats (incised masseter muscles on both sides); experiment: In vivo skeletal muscle forming capability (HE, MyoD, myogenin staining at postoperative week 1), Example 4; set-up: species or system Jcl:SD rats
Protocol: In the same manner as in Example 2, incisions were made in masseter muscles on both sides in Jcl:SD rats (10 weeks old) under anesthesia, and immediately after that, the rats were subjected to administration of 1 mL of the SV peptide (20 ng/mL) or 1 mL of PBS into the incised left masseter muscle without administration into the incised right masseter muscle. The two groups were called “SV group” and “PBS group”. Each rat was euthanized at postoperative week 1, and the masseter muscles on both sides were excised. The masseter muscles were embedded in paraffin and transversally sliced into histological sections by the usual method. The sections were subjected to HE staining, immunostaining with an anti-MyoD antibody and immunostaining with an anti-myogenin antibody. The anti-MyoD antibody used was an anti-mouse MyoD antibody (Abcam), and the anti-myogenin antibody used was an anti-mouse myogenin antibody (Abcam). A biotin-labeled anti-rabbit IgG antibody (DAKO) was used as a secondary antibody.
The area of granulation tissue formed on the cut surfaces was measured on the HE-staining specimens using the image-analysis software ImageJ (NIH, USA). The granulation tissue area ratios in the SV group and the PBS group were separately calculated using the following formula. […]
(§1) Images of the MyoD-immunostained specimens were taken with a digital camera mounted on a microscope, and the number of MyoD-positive nuclei in the muscle tissue area extending 2.5 mm on each side of the muscle incision site was counted. The MyoD-positive ratios in the SV group and the PBS group were separately calculated using the following formula. […]
as §1, with “myogenin-immunostained” for “MyoD-immunostained”, “myogenin-positive” for “MyoD-positive”

[2] = test system: muscle injury model rats (incised masseter muscles on both sides); experiment: Behavioral physiological experiment (feeding efficiency), Example 2; format: in vivo, Jcl:SD rats
Protocol: (§2) Incisions were made in masseter muscles on both sides in Jcl:SD rats (10 weeks old) under anesthesia in the same manner as in Example 1. Immediately after muscle incision, 1 mL each of the SV peptide (20 ng/mL) or 1 mL each of PBS was intramuscularly administered into several sites surrounding the cut surfaces. The incision on each side was made along a straight line connecting the lateral angle of the eye and the mandibular angle, extending in depth from the fascia on the skin side to the lateral periosteum on the mandibular ramus. The cut surfaces were subjected to electrocoagulation with an electric scalpel for the arrest of bleeding (see FIG. 1). […]
In the same manner as in Example 1, each rat was housed in a transparent plastic cage of 30 cm in length×30 cm in width×30 cm in height at postoperative weeks 1, 2, 4, 6, and 8, and the behavior was recorded on video cameras during the active time of rats (18:00 to 22:00). Food intake and mastication time were measured, and the food intake per unit of mastication time (feeding efficiency) was calculated.

[3] = test system: muscle injury model rats (incised masseter muscles on both sides); experiment: Electrophysiological experiment (masseter EMG), Example 2; format: in vivo, Jcl:SD rats
Protocol: as §2
In the same manner as in Example 1, bipolar needle electrodes were retained in the masseter muscles on both sides, and myogenic potential signals received through connectors fixed to both sides of the parietal bone were monitored. EMG data were recorded at postoperative weeks 1, 2, 4, 6, and 8.
The integral of bursts in the left (administration side) masseter muscle in the SV group or the PBS group was calculated as a measure of muscle activity and represented in FIG. 9 as a relative value compared to the 1-week postoperative value, which was assumed as 1. […]

fibroblasts = conditions: Patent Literature 4; cited from earlier work

SVVYGLR [SV peptide]
mesenchymal cell proliferation (mesenchymal cell): promotes mesenchymal cell proliferation
granulation tissue area ratio (administration side / non-administration side) ([1]; HE staining): significant reduction in granulation tissue formation
MyoD-positive ratio (administration side / non-administration side) ([1]; MyoD immunostaining, SV group vs PBS group): significant increase of MyoD-positive cells as compared with the PBS group
myogenin-positive ratio (administration side / non-administration side) ([1]; myogenin immunostaining, SV group vs PBS group): significant increase of myogenin-positive cells as compared with the PBS group
feeding efficiency (food intake per unit of mastication time) ([2]; postoperative week 8, SV group vs PBS group): significantly higher value than that in the PBS group
feeding efficiency (food intake per unit of mastication time) ([2]; time course postoperative weeks 1, 2, 4, 6, 8, relative to week 1 value = 1): time-dependent improvement in feeding efficiency
chewing side preference ([3]; postoperative weeks 1 and 8, SV peptide into left masseter, right incision only): increase in left-side chewing preference over time postoperatively
integral of bursts in the left (administration side) masseter muscle ([3]; weeks 4, 6, and 8, relative to 1-week postoperative value = 1, SV group vs PBS group): significantly greater values than those in the PBS group
type III collagen production in fibroblasts (fibroblasts): promotes type III collagen production in fibroblasts
